From ChEMBL document CHEMBL5120845, “Design and synthesis of novel macrolones bridged with linkers from 11,12-positions of macrolides” (Bioorg Med Chem Lett, 2022)
In brackets after ≈: the same amount, converted by molar mass.

Legend:
Streptococcus pneumoniae [1] = assay: Antibacterial activity against Streptococcus pneumoniae ATCC 49619 by microbroth dilution method; type: functional
Streptococcus pneumoniae [2] = assay: Antibacterial activity against Streptococcus pneumoniae 07P390 by microbroth dilution method; type: functional
Streptococcus pneumoniae [3] = assay: Antibacterial activity against Streptococcus pneumoniae PU09 by microbroth dilution method; type: functional
Streptococcus pyogenes = assay: Antibacterial activity against Streptococcus pyogenes 12-206 by microbroth dilution method; type: functional
Staphylococcus aureus [4] = assay: Antibacterial activity against Staphylococcus aureus 15B196 by microbroth dilution method; type: functional
Staphylococcus aureus [5] = assay: Antibacterial activity against Staphylococcus aureus PU32 by microbroth dilution method; type: functional
Haemophilus influenzae = assay: Antibacterial activity against Haemophilus influenzae ATCC 49247 by microbroth dilution method; type: functional
[6] = Stability in rat liver microsomes assessed as unchanged drug level at 1 uM by LC-MS/MS analysis; type: ADME, Microsome; conditions: time 60 min, read-out: Stability
[7] = Stability in rat liver microsomes assessed as unchanged drug level at 1 uM after 60 mins by LC-MS/MS analysis; type: ADME, Microsome; conditions: read-out: Stability
[8] = Half life in human liver microsomes at 1 uM by LC-MS/MS analysis; type: ADME, Microsome
[9] = Intrinsic clearance in human liver microsomes at 1 uM by LC-MS/MS analysis; type: ADME, Microsome; conditions: read-out: CLH
[10] = tested on: Mycoplasmoides pneumoniae; assay: Antibacterial activity against erythromycin-susceptible Mycoplasma pneumoniae ATCC 29342 by microbroth dilution method; type: functional
[11] = tested on: Mycoplasmoides pneumoniae; assay: Antibacterial activity against erythromycin-resistant Mycoplasma pneumoniae A2058G by microbroth dilution method; type: functional
[12] = tested on: Mycoplasmoides pneumoniae; assay: Antibacterial activity against erythromycin-resistant Mycoplasma pneumoniae A2059G by microbroth dilution method; type: functional
[13] = tested on: Mycoplasmoides pneumoniae; assay: Antibacterial activity against erythromycin-resistant Mycoplasma pneumoniae A2058T by microbroth dilution method; type: functional

`CC[C@H]1OC(=O)[C@H](C)C(=O)[C@H](C)[C@@H](O[C@@H]2O[C@H](C)C[C@H](N(C)C)[C@H]2O)[C@](C)(OC)C[C@@H](C)C(=O)[C@H](C)[C@H]2N(CCCN3CCN(c4cc5c(cc4F)c(=O)c(C(=O)O)cn5C4CC4)CC3)C(=O)O[C@]12C` gave an MIC (Streptococcus pneumoniae [1]) of 0.016 µg/mL (≈ 0.0163 µM), an MIC (Streptococcus pneumoniae [2]) of 0.12 µg/mL (≈ 0.122 µM) and an MIC (Streptococcus pneumoniae [3]) of 1 µg/mL (≈ 1.02 µM). For the same molecule, the MIC (Streptococcus pyogenes) was 1 µg/mL (≈ 1.02 µM), the MIC (Staphylococcus aureus [4]) was 64 µg/mL (≈ 65 µM) and the MIC (Staphylococcus aureus [5]) was 1 µg/mL (≈ 1.02 µM). For the same molecule, the MIC (Haemophilus influenzae) was 8 µg/mL (≈ 8.13 µM), the remaining at 1 h, 1 µM [6] was 95.1% and the remaining at 1 h, 1 µM [7] was 65%. For the same molecule, the half-life at 1 µM [8] was 110 min, the CLint scaled at 1 µM [9] was 11.3 mL/min/kg and the MIC [10] was 0.008 µg/mL (≈ 0.00813 µM). For the same molecule, the MIC [11] was 8 µg/mL (≈ 8.13 µM), the MIC [12] was 8 µg/mL (≈ 8.13 µM) and the MIC [13] was 8 µg/mL (≈ 8.13 µM).
Work on `CCOc1ccc2ccc(=O)oc2c1` yielded a remaining at 1 h, 1 µM [6] of 0.695%, a remaining at 1 h, 1 µM [7] of 8.69% and a half-life at 1 µM [8] of 17.8 min. For the same molecule, the CLint scaled at 1 µM [9] was 70.2 mL/min/kg.
In the case of `CC[C@H]1OC(=O)[C@H](C)C(=O)[C@H](C)[C@@H](O[C@@H]2O[C@H](C)C[C@H](N(C)C)[C@H]2O)[C@](C)(OC)C[C@@H](C)C(=O)[C@H](C)[C@H]2N(CCCCc3ccc4c(=O)c(C(=O)O)cn(C5CC5)c4c3)C(=O)O[C@]12C`, the MIC (Streptococcus pneumoniae [1]) is reported as no more than 0.008 µg/mL, the MIC (Streptococcus pneumoniae [2]) is reported as 2 µg/mL (≈ 2.23 µM) and the MIC (Streptococcus pneumoniae [3]) is reported as 0.5 µg/mL (≈ 0.558 µM). For the same molecule, the MIC (Streptococcus pyogenes) was 0.25 µg/mL (≈ 0.279 µM), the MIC (Staphylococcus aureus [4]) was 8 µg/mL (≈ 8.93 µM) and the MIC (Staphylococcus aureus [5]) was 1 µg/mL (≈ 1.12 µM). It also gave an MIC (Haemophilus influenzae) of 4 µg/mL (≈ 4.46 µM), a remaining at 1 h, 1 µM [6] of 100% and a remaining at 1 h, 1 µM [7] of 35.1%. It also gave a half-life at 1 µM [8] of 39.1 min, a CLint scaled at 1 µM [9] of 31.9 mL/min/kg and an MIC [10] of 0.008 µg/mL (≈ 0.00893 µM). The MIC [11] was 32 µg/mL (≈ 35.7 µM), the MIC [12] was 32 µg/mL (≈ 35.7 µM) and the MIC [13] was 16 µg/mL (≈ 17.9 µM).
With `CC[C@H]1OC(=O)[C@H](C)C(=O)[C@H](C)[C@@H](O[C@@H]2O[C@H](C)C[C@H](N(C)C)[C@H]2O)[C@](C)(OC)C[C@@H](C)C(=O)[C@H](C)[C@H]2N(CCCCCCC#Cc3ccc4c(=O)c(C(=O)O)cn(C5CC5)c4c3)C(=O)O[C@]12C` the MIC (Streptococcus pneumoniae [1]) was no more than 0.008 µg/mL, the MIC (Streptococcus pneumoniae [2]) was 8 µg/mL (≈ 8.44 µM) and the MIC (Streptococcus pneumoniae [3]) was 1 µg/mL (≈ 1.05 µM). The MIC (Streptococcus pyogenes) was 1 µg/mL (≈ 1.05 µM), the MIC (Staphylococcus aureus [4]) was 32 µg/mL (≈ 33.7 µM) and the MIC (Staphylococcus aureus [5]) was 4 µg/mL (≈ 4.22 µM). For the same molecule, the MIC (Haemophilus influenzae) was 16 µg/mL (≈ 16.9 µM).
With `CC[C@H]1OC(=O)[C@H](C)C(=O)[C@H](C)[C@@H](O[C@@H]2O[C@H](C)C[C@H](N(C)C)[C@H]2O)[C@](C)(OC)C[C@@H](C)C(=O)[C@H](C)[C@H]2N(CCCCCC#Cc3ccc4c(c3)c(=O)c(C(N)=O)cn4C3CC3)C(=O)O[C@]12C` the MIC (Streptococcus pneumoniae [1]) was 0.016 µg/mL (≈ 0.0171 µM), the MIC (Streptococcus pneumoniae [2]) was 4 µg/mL (≈ 4.29 µM) and the MIC (Streptococcus pneumoniae [3]) was 1 µg/mL (≈ 1.07 µM). It also gave an MIC (Streptococcus pyogenes) of 2 µg/mL (≈ 2.14 µM), an MIC (Staphylococcus aureus [4]) of 128 µg/mL (≈ 137 µM) and an MIC (Staphylococcus aureus [5]) of 8 µg/mL (≈ 8.57 µM). The MIC (Haemophilus influenzae) was 64 µg/mL (≈ 68.6 µM).
Molecule `CC[C@H]1OC(=O)[C@H](C)C(=O)[C@H](C)[C@@H](O[C@@H]2O[C@H](C)C[C@H](N(C)C)[C@H]2O)[C@](C)(OC)C[C@@H](C)C(=O)[C@H](C)[C@H]2N(CCCCn3cnc(-c4cccnc4)c3)C(=O)O[C@]12C` [TELITHROMYCIN] has an MIC (Streptococcus pneumoniae [1]) of 0.008 µg/mL (≈ 0.00985 µM), an MIC (Streptococcus pneumoniae [2]) of 0.06 µg/mL (≈ 0.0739 µM) and an MIC (Streptococcus pneumoniae [3]) of 1 µg/mL (≈ 1.23 µM). It also gave an MIC (Streptococcus pyogenes) of 0.12 µg/mL (≈ 0.148 µM), an MIC (Staphylococcus aureus [4]) of 64 µg/mL (≈ 78.8 µM) and an MIC (Staphylococcus aureus [5]) of 0.5 µg/mL (≈ 0.616 µM). The MIC (Haemophilus influenzae) was 4 µg/mL (≈ 4.93 µM), the remaining at 1 h, 1 µM [6] was 93.2% and the remaining at 1 h, 1 µM [7] was 26.3%. It also gave a half-life at 1 µM [8] of 32.4 min, a CLint scaled at 1 µM [9] of 38.4 mL/min/kg and an MIC [10] of 0.008 µg/mL (≈ 0.00985 µM). For the same molecule, the MIC [11] was 256 µg/mL (≈ 315 µM), the MIC [12] was 256 µg/mL (≈ 315 µM) and the MIC [13] was 256 µg/mL (≈ 315 µM).
In the case of `CC[C@H]1OC(=O)[C@H](C)C(=O)[C@H](C)[C@@H](O[C@@H]2O[C@H](C)C[C@H](N(C)C)[C@H]2O)[C@](C)(OC)C[C@@H](C)C(=O)[C@H](C)[C@H]2N(CCCCC#Cc3ccc4c(c3)c(=O)c(C(=O)O)cn4C3CC3)C(=O)O[C@]12C`, the MIC (Streptococcus pneumoniae [1]) is reported as 0.016 µg/mL (≈ 0.0174 µM), the MIC (Streptococcus pneumoniae [2]) is reported as 128 µg/mL (≈ 139 µM) and the MIC (Streptococcus pneumoniae [3]) is reported as 1 µg/mL (≈ 1.09 µM). The MIC (Streptococcus pyogenes) was 4 µg/mL (≈ 4.35 µM), the MIC (Staphylococcus aureus [4]) was 256 µg/mL (≈ 278 µM) and the MIC (Staphylococcus aureus [5]) was 2 µg/mL (≈ 2.17 µM). The MIC (Haemophilus influenzae) was 32 µg/mL (≈ 34.8 µM).
`CC[C@H]1OC(=O)[C@H](C)C(=O)[C@H](C)[C@@H](O[C@@H]2O[C@H](C)C[C@H](N(C)C)[C@H]2O)[C@](C)(OC)C[C@@H](C)C(=O)[C@H](C)[C@H]2N(CCCCC#Cc3ccc4c(=O)c(C(=O)O)cn(C5CC5)c4c3)C(=O)O[C@]12C` gave an MIC (Streptococcus pneumoniae [1]) of 0.016 µg/mL (≈ 0.0174 µM), an MIC (Streptococcus pneumoniae [2]) of 8 µg/mL (≈ 8.69 µM) and an MIC (Streptococcus pneumoniae [3]) of 2 µg/mL (≈ 2.17 µM). It also gave an MIC (Streptococcus pyogenes) of 2 µg/mL (≈ 2.17 µM), an MIC (Staphylococcus aureus [4]) of 256 µg/mL (≈ 278 µM) and an MIC (Staphylococcus aureus [5]) of 2 µg/mL (≈ 2.17 µM). The MIC (Haemophilus influenzae) was 32 µg/mL (≈ 34.8 µM).
Work on `CC[C@H]1OC(=O)[C@H](C)C(=O)[C@H](C)[C@@H](O[C@@H]2O[C@H](C)C[C@H](N(C)C)[C@H]2O)[C@](C)(OC)C[C@@H](C)C(=O)[C@H](C)[C@H]2N(CCCCN3CCN(c4cc5c(cc4F)c(=O)c(C(=O)O)cn5C4CC4)CC3)C(=O)O[C@]12C` yielded an MIC (Streptococcus pneumoniae [1]) of no more than 0.008 µg/mL, an MIC (Streptococcus pneumoniae [2]) of 2 µg/mL (≈ 2 µM) and an MIC (Streptococcus pneumoniae [3]) of 0.5 µg/mL (≈ 0.501 µM). For the same molecule, the MIC (Streptococcus pyogenes) was 0.5 µg/mL (≈ 0.501 µM), the MIC (Staphylococcus aureus [4]) was 256 µg/mL (≈ 256 µM) and the MIC (Staphylococcus aureus [5]) was 2 µg/mL (≈ 2 µM). The MIC (Haemophilus influenzae) was 8 µg/mL (≈ 8.01 µM).
`CC[C@H]1OC(=O)[C@H](C)C(=O)[C@H](C)[C@@H](O[C@@H]2O[C@H](C)C[C@H](N(C)C)[C@H]2O)[C@](C)(OC)C[C@@H](C)C(=O)[C@H](C)[C@H]2N(CCCCc3ccc4c(c3)c(=O)c(C(=O)O)cn4C3CC3)C(=O)O[C@]12C` showed an MIC (Streptococcus pneumoniae [1]) of 0.06 µg/mL (≈ 0.067 µM), an MIC (Streptococcus pneumoniae [2]) of 64 µg/mL (≈ 71.4 µM) and an MIC (Streptococcus pneumoniae [3]) of 4 µg/mL (≈ 4.46 µM). For the same molecule, the MIC (Streptococcus pyogenes) was 2 µg/mL (≈ 2.23 µM), the MIC (Staphylococcus aureus [4]) was 512 µg/mL (≈ 571 µM) and the MIC (Staphylococcus aureus [5]) was 1 µg/mL (≈ 1.12 µM). The MIC (Haemophilus influenzae) was 32 µg/mL (≈ 35.7 µM).
In the case of `CC[C@H]1OC(=O)[C@H](C)C(=O)[C@H](C)[C@@H](O[C@@H]2O[C@H](C)C[C@H](N(C)C)[C@H]2O)[C@](C)(OC)C[C@@H](C)C(=O)[C@H](C)[C@H]2N(CCC#Cc3ccc4c(=O)c(C(=O)O)cn(C5CC5)c4c3)C(=O)O[C@]12C`, the MIC (Streptococcus pneumoniae [1]) is reported as 0.016 µg/mL (≈ 0.0179 µM), the MIC (Streptococcus pneumoniae [2]) is reported as 2 µg/mL (≈ 2.24 µM) and the MIC (Streptococcus pneumoniae [3]) is reported as 0.5 µg/mL (≈ 0.561 µM). It also gave an MIC (Streptococcus pyogenes) of 1 µg/mL (≈ 1.12 µM), an MIC (Staphylococcus aureus [4]) of 16 µg/mL (≈ 17.9 µM) and an MIC (Staphylococcus aureus [5]) of 0.25 µg/mL (≈ 0.28 µM). For the same molecule, the MIC (Haemophilus influenzae) was 4 µg/mL (≈ 4.48 µM).
